Converted amounts (≈) assume the structure as drawn.

The subject of the experiment is Mycobacterium tuberculosis. In words: Antimycobacterial activity against Mycobacterium tuberculosis H37Rv ATCC 27294 by broth micro dilution assay. Format: functional.
As usually defined, the MIC is the lowest concentration that inhibits growth of the organism. Lower therefore signals greater potency. In the case of `COc1cc(C2=NN(C(N)=O)C(c3ccc(Cl)cc3)C2)ccc1OCC(=O)O` (configuration not stated), the MIC was 0.13 µg/mL (≈ 0.322 µM). In the case of `COc1cc(C2=NN(C(N)=S)C(c3ccccc3Cl)C2)ccc1OCC(=O)O` (configuration not stated) it was 0.12 µg/mL (≈ 0.286 µM). For `COc1cc(C2=NN(C(N)=O)C(c3ccc(C)cc3)C2)ccc1OCC(=O)O` (configuration not stated) the value was 4.12 µg/mL (≈ 10.7 µM); for `COc1cc(C2=NN(C(N)=S)C(c3ccc(F)cc3)C2)ccc1OCC(=O)O` (configuration not stated), 0.96 µg/mL (≈ 2.38 µM); for `COc1cc(C2=NN(C(N)=S)C(c3ccc(Cl)cc3)C2)ccc1OCC(=O)O` (configuration not stated), 0.06 µg/mL (≈ 0.143 µM). Regarding `COc1cc(C2=NN(C(N)=S)C(c3ccc(N)cc3)C2)ccc1OCC(=O)O` (configuration not stated), the MIC turned out to be 12.5 µg/mL (≈ 31.2 µM). In the case of `COc1cc(C2=NN(C(N)=O)C(c3ccc(N)cc3)C2)ccc1OCC(=O)O` (configuration not stated) it was 5.32 µg/mL (≈ 13.8 µM); in that of `COc1cc(C2=NN(C(N)=O)C(c3ccccc3Cl)C2)ccc1OCC(=O)O` (configuration not stated), 1.26 µg/mL (≈ 3.12 µM); in that of `COc1cc(C2=NN(C(N)=O)C(c3ccccc3)C2)ccc1OCC(=O)O` (configuration not stated), 6.25 µg/mL (≈ 16.9 µM).

Compound `COc1cc(C2=NN(C(N)=S)C(c3ccccc3)C2)ccc1OCC(=O)O` (configuration not stated) gave an MIC of 6.25 µg/mL (≈ 16.2 µM).

Regarding `COc1cc(C2=NN(C(N)=O)C(Cc3ccccc3)C2)ccc1OCC(=O)O` (configuration not stated), the MIC was found to be 6.25 µg/mL (≈ 16.3 µM).

In turn, `COc1cc(C2=NN(C(N)=S)C(c3ccc(C)cc3)C2)ccc1OCC(=O)O` (configuration not stated) had an MIC of 6.15 µg/mL (≈ 15.4 µM). In the case of `COc1cc(C2=NN(C(N)=O)C(c3ccc(F)cc3)C2)ccc1OCC(=O)O` (configuration not stated), the lowest concentration to inhibit growth (MIC) was 3.16 µg/mL (≈ 8.16 µM). In the case of `COc1cc(C2=NN(C(N)=O)C(c3ccc(O)cc3)C2)ccc1OCC(=O)O` (configuration not stated) it was 1.23 µg/mL (≈ 3.19 µM); in that of `COc1cc(C2=NN(C(N)=O)C(c3ccccc3O)C2)ccc1OCC(=O)O` (configuration not stated), 0.58 µg/mL (≈ 1.51 µM).

On to `COc1cc(C2=NN(C(N)=S)C(c3ccc(O)cc3)C2)ccc1OCC(=O)O` (configuration not stated), for which the MIC stood at 0.2 µg/mL (≈ 0.498 µM). In the case of `COc1cc(C2=NN(C(N)=O)C(c3cccc([N+](=O)[O-])c3)C2)ccc1OCC(=O)O` (configuration not stated) it was 6.25 µg/mL (≈ 15.1 µM); in that of `COc1cc(C2=NN(C(N)=S)C(c3cccc([N+](=O)[O-])c3)C2)ccc1OCC(=O)O` (configuration not stated), 6.25 µg/mL (≈ 14.5 µM); in that of `COc1cc(C2=NN(C(N)=S)C(c3ccc([N+](=O)[O-])cc3)C2)ccc1OCC(=O)O` (configuration not stated), 6.32 µg/mL (≈ 14.7 µM).

`COc1cc(C2=NN(C(N)=S)C(c3ccccc3O)C2)ccc1OCC(=O)O` (configuration not stated) gave an MIC of 0.58 µg/mL (≈ 1.44 µM).

`COc1cc(C2=NN(C(N)=S)C(Cc3ccccc3)C2)ccc1OCC(=O)O` (configuration not stated) gave an MIC of 6.25 µg/mL (≈ 15.6 µM). Consider `COc1cc(C2=NN(C(N)=O)C(c3ccc([N+](=O)[O-])cc3)C2)ccc1OCC(=O)O` (configuration not stated), for which the MIC was 6.25 µg/mL (≈ 15.1 µM).

These data come from ChEMBL document CHEMBL1146385, “Discovery of novel phenoxyacetic acid derivatives as antimycobacterial agents” (2007).
